Experimental data from paper PMC11671585, “Deciphering the molecular basis of lipoprotein recognition and transport by LolCDE” (Signal Transduction and Targeted Therapy, 2024).

Target: T1, LolCDE (LolCD^E171QE) (Escherichia coli, UniProt P75957, E171Q)
T1 construct: gene lolD; full complex LolC, LolD dimer, LolE; 8xHis tag at C terminus of LolD; expressed in E. coli C43 (DE3); reconstituted in MSP1D1 nanodiscs with E. coli polar lipids; with Lipoprotein-releasing system transmembrane protein LolC; Lipoprotein-releasing system transmembrane protein LolE
T1 sequence (P75957 whole entry E171Q): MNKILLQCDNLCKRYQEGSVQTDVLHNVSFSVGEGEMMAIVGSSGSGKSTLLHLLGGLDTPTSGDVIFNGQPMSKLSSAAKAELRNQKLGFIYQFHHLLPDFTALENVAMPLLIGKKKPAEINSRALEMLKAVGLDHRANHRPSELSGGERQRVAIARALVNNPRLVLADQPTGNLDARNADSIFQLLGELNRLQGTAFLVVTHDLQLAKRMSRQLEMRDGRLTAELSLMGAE
T1 sequence (P75958 2-414, further chain): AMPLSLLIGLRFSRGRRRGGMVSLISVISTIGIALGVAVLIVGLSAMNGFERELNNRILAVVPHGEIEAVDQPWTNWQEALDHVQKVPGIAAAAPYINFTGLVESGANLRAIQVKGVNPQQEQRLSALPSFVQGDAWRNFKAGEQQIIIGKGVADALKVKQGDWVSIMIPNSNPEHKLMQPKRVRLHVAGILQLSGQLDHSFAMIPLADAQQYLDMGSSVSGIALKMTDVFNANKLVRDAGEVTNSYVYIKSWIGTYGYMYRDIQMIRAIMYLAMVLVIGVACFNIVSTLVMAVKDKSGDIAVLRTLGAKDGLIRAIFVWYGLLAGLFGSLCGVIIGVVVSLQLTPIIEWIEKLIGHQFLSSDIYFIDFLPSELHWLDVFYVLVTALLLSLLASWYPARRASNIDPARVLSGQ
T1 sequence (P0ADC3 whole entry, further chain): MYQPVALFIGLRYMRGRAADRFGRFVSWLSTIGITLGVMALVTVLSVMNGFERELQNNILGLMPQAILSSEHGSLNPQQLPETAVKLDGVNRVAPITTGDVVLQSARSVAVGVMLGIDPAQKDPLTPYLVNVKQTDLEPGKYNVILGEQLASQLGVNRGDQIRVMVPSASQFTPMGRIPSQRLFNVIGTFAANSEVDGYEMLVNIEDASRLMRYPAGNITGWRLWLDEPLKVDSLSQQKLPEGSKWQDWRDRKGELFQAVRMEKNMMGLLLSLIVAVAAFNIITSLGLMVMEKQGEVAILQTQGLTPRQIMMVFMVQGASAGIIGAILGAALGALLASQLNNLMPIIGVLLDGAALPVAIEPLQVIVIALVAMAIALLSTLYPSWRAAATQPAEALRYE
Experiment: cryo-EM structure, […] Å, nanodiscs
Type: binding
Conditions: endogenous ATP with Mg2+, no nucleotide added; both catalytic sites of the LolD dimer; catalytically inactive mutant; pH 7.8

Nc1ncnc2c1ncn2[C@@H]1O[C@H](COP(=O)(O)OP(=O)(O)OP(=O)(O)O)[C@@H](O)[C@H]1O [ATP]
cryo-EM structure, 3.2 Å, nanodiscs: additional cryo-EM densities were observed in the catalytic pockets of LolD, which were identified as ATP
